{"source": "patent US8796323B2", "about": "“Defensin-like molecules as novel antimicrobial agents” (University of Maryland, Baltimore, priority 2010, dated 2014)", "experiment": "Surface Plasmon Resonance binding of HNP1 peptides and Lipid II", "conditions": "ratio of Kd values", "method": "Short-chain water-soluble Lipid II containing a lipid tail of three isoprene units was generated and purified essentially as described in Breukink, E., et al., 2003, “Lipid II is an intrinsic component of the pore induced by nisin in bacterial membranes,” J Biol Chem 278:19898-19903.\nTypically, M. flavus vesicles (120 μmol lipid-Pi) were incubated together with 500 μmol UDP-GlcNAc, 500 μmol UDP-MurNAC-pentapeptide and 400 μmol farnesyl phosphate in 100 mM Tris-HCl pH 8.0, 5 mM MgCl2. The incubation lasted two hours at room temperature for 3-P. The synthesis of 3-Lipid II was followed using RP-8 reversed phase TLC (Merck) developed in 75% methanol. […]\nSurface Plasmon Resonance binding experiments were carried out on a BIAcore T100 system (BIAcore Inc., Piscataway, N.Y.) at 25° C. […] Association and dissociation were assessed for 300 and 600 second, respectively. […] Binding isotherms were analyzed with manufacturer-supplied software for BIAcore T100 and/or GraphPad Prism 4.0.\nThe inventors used a Surface Plasmon Resonance (SPR) approach to determine the binding of HNP1 to Lipid II directly. Initial binding of L-HNP1, D-HNP1 and linear HNP1 to soluble Lipid II immobilized on the chip surface was determined. […]"}
{"substance": "HNP1: α-defensin Human Neutrophil Peptide 1, chemically synthesized and folded", "values": [{"measurement": "affinity for Lipid II, L-HNP1 relative to D-HNP1", "result": "approximately five times higher affinity than the D-peptide"}]}
